Measurements: patent publication US5972678A, “Animal 2-5A dependent RNases” (Cleveland Clinic Foundation, priority 1995, dated 1999)
Substitutions are numbered along the chain they refer to.

How the values were obtained:
[1] = tested on: human 2-5A-dependent RNase (recombinant and HeLa cell enzyme); assay: UV covalent crosslinking of 2-5A probe with unlabeled competitors, human enzyme; assay type: binding; conditions: competitor 100 nM; recombinant human enzyme from wheat germ extract; same pattern with interferon-treated HeLa cell extract
Method: FIG. 5A is specific affinity of recombinant human 2-5A-dependent RNase for 2-5A. Crosslinking of the 2-5A probe (lanes 1-7) to protein is performed after translation reactions in wheat germ extract (5 μl) with human 2-5A-dependent RNase mRNA (lanes 1-3) or without added RNA (lane 4) or in extract of human interferon a treated (1000 units per ml for 16 h) human HeLa cells (350 μg of protein) (lanes 5-7). […] Incubations with ^35 S-methionine are shown in lanes 8 to 12. Lane 8 is with wheat germ extract and human 2-5A-dependent RNase mRNA. Reticulocyte lysate preadsorbed to 2-5A-cellulose is incubated with human 2-5A-dependent RNase MRNA in the absence (lane 9) or presence (lane 10) of cycloheximide, or in the absence of added mRNA (lane 11). […] The positions and relative molecular masses (in kDa) of the marker proteins are indicated.
The 2-5A binding properties of the recombinant and naturally occurring forms of human 2-5A-dependent RNase are compared by uv covalent crosslinking to the 2-5A probe. […] Radiolabeling of the cloned human 2-5A-dependent RNase with the 2-5A probe is not prevented by (A2'p)2 A. See FIG. 5A, lanes 1 and 2. […] See lane 3. The same pattern of 2-5A binding activity is obtained with 2-5A-dependent RNase in an extract of interferon-treated human HeLa cells. […]

[2] = tested on: murine 2-5A-dependent RNase (truncated recombinant clone ZB1 and murine L cell enzyme); assay: UV covalent crosslinking of 32P-2-5A probe with unlabeled oligonucleotide competitors, murine enzyme; assay type: binding; conditions: for concentration that prevents 2-5A probe binding: 32P-2-5A probe 2.4 nM, both recombinant (ZB1) and naturally occurring murine protein; for competition with 2-5A probe binding: competitor 100 nM, recombinant 74 kDa protein (clone ZB1) from wheat germ extract, similar profile with murine L929 cell enzyme
Method: FIG. 2A is a specific affinity of truncated murine 2-5A-dependent RNase for 2-5A. UV covalent crosslinking of the ^32 P-2-5A probe (lanes 1-7) to protein is performed after translation reactions in wheat germ extract (5 μl) with murine 2-5A-dependent RNase mRNA (from clone ZB1) (lanes 1-3) or without added RNA (lane 4) or in extract of interferon treated mouse L cells (100 μg of protein) (lanes 5-7). Reactions are without added competitor (lanes 1, 4, and 5) or in the presence of either trimer core. […] Lanes 8 and 9 are produced by incubating the wheat germ extract with ^35 S-methionine in the absence or presence of 2-5A-dependent RNase mRNA, respectively.
Autoradiograms of the dried SDS/10% polyacrylamide gels are shown. Concentrations of the oligonucleotide competitors are indicated. I is inosine.
To obtain recombinant protein for characterization, the cDNA is transcribed and translated in cell-free systems. See Example. 2-5A binding activity is then determined by covalently crosslinking the 2-5A probe to the protein with uv light, for example, Nolan-Sorden, N. L. et al., Anal. Biochem., 184: 298-304 (1990). […] See FIG. 2A, lanes 2 and 3, respectively. There is no detectable 2-5A binding proteins in the wheat germ extract as shown in the incubation without added RNA, FIG. 2A, lane 4. For comparison, a similar profile of 2-5A binding activity is obtained for the 80 kDa 2-5A-dependentRNase from murine L929 cells, incubated without added oligonucleotide or with (A2'p)2 A or p3 (A2'p)2 A as competitors. In a further comparison, covalent linkage of the 2-5A probe to the about 74 kDa protein and to murine L929 cell 2-5A-dependent RNase followed by partial digestion with chymotrypsin produces an identical pattern of six labeled peptides. Similarly, partial digestion of the two labeled proteins with S. aureus V8 protease also produces identical patterns of labeled cleavage products.
The 2-5A binding functions of the recombinant and naturally occurring forms of murine 2-5A-dependent RNase are characterized by covalent crosslinking to the 2-5A probe in the presence of unlabeled 2-5A or 2-5A analogues as competitors. […] In comparison, a 500-fold higher concentration of (A2'p)2 A (10 μM) is required to prevent probe binding to both proteins. See lane 13. The dimer species, p3 A2'pA, is unable to prevent the 2-5A probe from binding to the proteins even at a concentration of 10 μM (lane 18). However, the inosine analogue, p3 I2'pA2'pA, Imai, J. et al., J. Biol. Chem., 260: 1390-1393 (1985), is able to prevent probe binding to both proteins but only when added at a concentration of about 1.0 μM (lane 22).
The synthesis of the 2-5A probe, p(A2'p)2 (br^8 A2'p)2 A[32P]Cp, and its crosslinking to 2-5A-dependent RNase is performed exactly as described. See Nolan-Sorden, N. L. et al., Anal. Biochem., 184: 298-304 (1990). Briefly, the 2-5A probe, about 0.7 to 2.5 nM at […], is incubated for about one hour on ice with cell extract prepared as described, Silverman, R. H. and Krause, D., Lymphokines and Interferons: A Practical Approach, I.R.L. Press, Oxford. England, pp. 149-193 (1987), in the absence or presence of unlabeled oligonucleotide competitors. Covalent crosslinking is done under a uv lamp (308 nm) for one hour on ice and the proteins are separated on SDS/10% polyacrylamide gels. Filter assays for 2-5A binding activity using the 2-5A probe for about one hour on ice, as described in Knight, M. et al., Nature, 288: 189-192 (1980).

[3] = tested on: 2-5A probe, Br-2-5A-[32P]pCp; assay type: binding
2-5A probe = assay: 2-5A binding activity of nested 3'-deletion mutants, filter binding assay and uv crosslinking assay; conditions: protein expressed in wheat germ extract
From the text: See Example and Knight et al. 1980). The positions of the P-loop motifs and the lengths of the translation products are indicated. Clone ZB1 encodes for amino acids designated as 1-656 in Table II, except for the last 5 amino acid residues which are Lys, Pro, Leu, Ser, and Gly. Clone ZB2 encodes for amino acids designated as 1-619 in Table II. Clone ZB3 encodes for amino acids designated as 1-515 in Table II. Clone ZB5 encodes for amino acids designated as 1-474 in Table II. Clone ZB9 encodes for amino acids designated as 1-403 in Table II. Clone ZB10 encodes for amino acids designated as 1-365 in Table II. Clone ZB13 encodes for amino acids designated as 1-294 in Table II. Clone ZB14 encodes for amino acids designated as 1-265 in Table II. Clone ZB15 encodes for amino acids designated as 1-218 in Table II.
To further define sequences involved in 2-5A binding, nested 3'-deletions of the murine 2-5A-dependent RNase cDNA, clone ZB1, are constructed, transcribed in vitro, and expressed in a wheat germ extract. […] The levels of 2-5A binding activity are determined with the 2-5A probe in both a filter binding assay, Knight, M. et al., Nature, 288: 189-192 (1980), and the uv crosslinking assay, Nolan-Sorden, N. L. et al., Anal. Biochem., 184: 298-304 (1990), with similar results. […]

(A2'p)2 A
competition with 2-5A probe binding [1]: not prevented | concentration that prevents 2-5A probe binding [2]: 10 µM | competition with 2-5A probe binding [2]: fails to interfere with binding of the protein to the 2-5A probe

p3 I2'pA2'pA
concentration that prevents 2-5A probe binding [2]: about 1.0 μM

p3 (A2'p)2 A
competition with 2-5A probe binding [1]: effectively competes with the 2-5A probe | concentration that prevents 2-5A probe binding [2]: about 20 nM | competition with 2-5A probe binding [2]: completely prevents probe binding

p3 A2'pA
concentration that prevents 2-5A probe binding [2]: > 10 µM

B1: Clone ZB1: truncated recombinant murine 2-5A-dependent RNase, amino acids 1-656 in Table II (protein, UniProt Q05921 1-656, looked up, fragment)
chain: METPDYNTPQGGTPSAGSQRTVVEDDSSLIKAVQKGDVVRVQQLLEKGADANACEDTWGWTPLHNAVQAGRVDIVNLLLSHGADPHRRKKNGATPFIIAGIQGDVKLLEILLSCGADVNECDENGFTAFMEAAERGNAEALRFLFAKGANVNLRRQTTKDKRRLKQGGATALMSAAEKGHLEVLRILLNDMKAEVDARDNMGRNALIRTLLNWDCENVEEITSILIQHGADVNVRGERGKTPLIAAVERKHTGLVQMLLSREGINIDARDNEGKTALLIAVDKQLKEIVQLLLEKGADKCDDLVWIARRNHDYHLVKLLLPYVANPDTDPPAGDWSPHSSRWGTALKSLHSMTRPMIGKLKIFIHDDYKIAGTSEGAVYLGIYDNREVAVKVFRENSPRGCKEVSCLRDCGDHSNLVAFYGREDDKGCLYVCVSLCEWTLEEFLRLPREEPVENGEDKFAHSILLSIFEGVQKLHLHGYSHQDLQPQNILIDSKKAVRLADFDQSIRWMGESQMVRRDLEDLGRLVLYVVMKGEIPFETLKTQNDEVLLTMSPDEETKDLIHCLFSPGENVKNCLVDLLGHPFFWTWENRYRTLRNVGNESDIKVRKCKSDLLRLLQHQTLEPPRSFDQWTSKIDKNVMDEMNHFYEKRKKNPYQD
2-5A binding activity compared with naturally occurring enzyme (in words) ([3]; uv crosslinking to 2-5A probe with competitors, protein missing about 84 carboxy-terminal amino acids): indistinguishable from that of naturally occurring 2-5A-dependentRNase

B2: Clone ZB15: murine 2-5A-dependent RNase deletion mutant, amino acids 1 to 218, both P-loop motifs deleted (protein, UniProt Q05921 1-218, looked up, fragment)
chain: METPDYNTPQGGTPSAGSQRTVVEDDSSLIKAVQKGDVVRVQQLLEKGADANACEDTWGWTPLHNAVQAGRVDIVNLLLSHGADPHRRKKNGATPFIIAGIQGDVKLLEILLSCGADVNECDENGFTAFMEAAERGNAEALRFLFAKGANVNLRRQTTKDKRRLKQGGATALMSAAEKGHLEVLRILLNDMKAEVDARDNMGRNALIRTLLNWDCENV
2-5A binding activity (in words) (2-5A probe): completely lacking in 2-5A binding activity

B3: Clone ZB1 (Lys^240,274 →Asn): double mutant of clone ZB1, lysines 240 and 274 replaced with asparagine (protein, UniProt Q05921 1-656, looked up, variant K240N K274N)
chain: B1 chain with K240N, K274N
2-5A binding activity, % of the activity of clone ZB1 ([3]; uv crosslinking, phosphorimager analysis of dried gel, wheat germ extract translation products): 12.2%
